Consider four compounds from US11440932B2, “Surfactant compounds-clips for extraction and stabilization in solution of membrane proteins” (CENTRE NATIONAL DE LA RECHERCHE SCIENTIFIQUE, priority 2017, dated 2022).

Series [1] is described as follows: Critical micelle concentration (CMC) by DPH fluorescence. As to conditions: for CMC: 50 mM tris-HCl, pH 8.0. It counts as physicochemical. As for the experimental part: FIG. 4 represents the fluorescence (%) of DPH (1,6-diphenyl-1,3,5-hexatriene) in the presence of increasing concentrations (0.0001 mM, 0.001 mM, 0.01 mM, 0.1 mM, 1 mM and 10 mM) of clips (compounds of the invention), exemplified with the compounds #3.7e (C13, points represented by squares) and 3.7f (C18, points represented by circles). The experiment is carried out in triplicates. In accordance with Chattopadhyay, A. & London, E ([22]), the CMC corresponds to the concentration at which the breakage in the slope is observed, here at 20 μM for 3.7f and 2 mM for 3.7e (black symbols).
Procedure. The molecules of the invention were prepared in a range of concentrations extending from 0.1 μM to 10 mM in 50 mM tris-HCl, pH 8.0 and neutralized at this pH. To 80 μl of each solution (triplicate), the same volume of 10 μM of 1,6-diphenyl-1,3,5-hexatriene (DPH, Sigma, D208000) is added, prepared at 100 μM in tetrahydrofuran then diluted 10-fold in H2O. The increase in the fluorescence of the DPH occurs when the latter find micelles of clips into which it can insert itself (Chattopadhyay, A. & London, E. Fluorimetric determination of critical micelle concentration avoiding interference from detergent charge. Anal Biochem 139, 408-412 (1984) ([22])). The fluorescence is read with a Xenius SAFAS fluorimeter by exciting at 358 nm and recording the fluorescence emission at 430 nm, with slits of 9 to 10 nm for the excitation and the emission and a gain of 100 to 150, depending on the cases.
Results. The CMC of the detergents is the concentration starting from which they associate with one another to form micelles, in which, in aqueous solution, the hydrophobic portions are grouped together at the center and the hydrophilic regions are exposed to the solvent. […] A typical result obtained with a compound 3.7 provided with a C13 (3.7e) or C18 ([…]) aliphatic chain is illustrated in FIG. 4.

Series [2] can be described thus: Diameter of micelles by dynamic light scattering (DLS). It counts as physicochemical. As to conditions: estimated micelle diameter by DLS; 30 mM tris-HCl, pH 8.0. As for the experimental part:
FIG. 5 depicts the dynamic light scattering (DLS) of clips, in intensity (%, column A on the left) and in number (%, column B on the right), as a function of the […] (nm). The estimated diameters are indicated on each panel (column A). Columns A and B, from top to bottom: compound 3.7c (10 mM, 5×CMC), compound 3.7d (10 mM, 5×CMC), compound 3.7e (2 mM, […]), compound 3.7f (10 mM, 500×CMC), compound 3.7h (1 mM, 100×CMC), compound 3.7j (2 mM, 100×CMC), compound 3.9a (1 mM, 50×CMC).
Another physicochemical parameter of the micelles of detergents is their diameter, assuming that they are spherical. This dimension is obtained by the light scattering (DLS) technique.
Procedure. The molecules of the invention tested were prepared in a range of concentrations extending from 0.1 to 1000×CMC in 30 mM tris-HCl, pH 8.0 and neutralized at this pH. The solutions are filtered on 0.22 μm. The measurement is carried out on 100 μl, in triplicate on a Zetasizer Nano-S from Malvern Instruments.

The target in series [3] is T1, BmrA (Bacillus subtilis, UniProt O06967).
T1 construct: His tag; made in house; host or cells: E. coli C41(DE3)
The series is described as follows: Extraction of BmrA from membranes (SDS-PAGE of supernatant). As to conditions: detergent 10 g/l unless indicated otherwise; 2 h at 4° C. Also on record: species or system bacterial; overexpressed in E. coli C41DE3. As to the method:
(§1) FIG. 6 depicts the extraction of the membrane proteins BmrA (panels A and C) and AcrB (panels B and D) using commercial detergents and the molecules of the invention (panels A and B, from left to right): SDS, DDM, FC12, TX100, compounds of the invention 1.4, 1.5, 2.3a, 2.3b, 2.3c, 2.3d, 2.3e, 2.3f, 2.3g, 2.3h, 2.3i, 3.7a, 3.7b; panel C: compounds of the invention 3.7c 0.8%, 3.7d 0.16%, 3.7e 0.8%, 3.7f 0.3%, 3.7g 0.4%, 3.7h 0.2%, 3.7i 0.07%, 3.7j 0.09%, 3.7k, 3.7l, 0.25%, 3.9a, 4.5a, 4.5b, 4.5c, 4.5d 0.34%, 4.6a, 4.6b, 4.6c, 4.6d, 5.3a, 5.3b, 5.3c 0.3%, 5.3d 0.3%; panel D: 3.7c, 3.7d, 3.7e, 3.7f, 3.7h, 3.7i 0.1%, 3.7j, 3.7k, 3.7l, 3.9a, 4.5a, 4.5b, 4.5c, 4.5d, 4.6a, 4.6b, 4.6c, 4.6d. The detergents are added at 10 g/l (1%), unless indicated otherwise. The equivalent of 20 μg of proteins of the extracted fraction after centrifugation at 100 000×g for 30 min is deposited on 10% SDS-PAGE, stained with Coomassie blue after migration. BmrA migrates in its monomeric form to the level of the 55 kDa band; AcrB migrates in its monomeric form to the level of the 100 kDa band. SDS=sodium dodecyl sulfate; DDM=β-D-dodecyl maltoside; FC12=foscholine-12; TX100=triton X-100.
(§2) The extraction capacity of the detergents of the series is tested on membranes in which BmrA or AcrB are strongly expressed. The extraction with the clips (molecules of the invention) is compared to that obtained with commercial detergents, used as reference.
(§3) Procedure. BmrA represents 25% of the proteins present in the overexpression system used (E. coli, C41DE3). These membranes are prepared as described previously (Matar-Merheb, R. et al. ([11])). The membranes containing AcrB (approximately 20% of the membrane proteins, same expression system as BmrA) were prepared as described previously (Seeger, M. A. et al. ([21])). The detergents are used at 10 g/l unless indicated otherwise, and the proteins diluted at 2 g/l in a 20 mM Tris-HCl buffer, pH 8.0, 100 mM NaCl, 15% glycerol, with protease inhibitors (Roche) added thereto at an amount of one tablet/100 ml. The mixture (T) is incubated for 2 h at 4° C. then centrifuged for 1 h at 4° C. at 100 000×g in order to separate the extracted fraction (supernatant, S) from that which is not extracted (pellet). The supernatants are deposited on 10% SDS-PAGE and stained with Coomassie blue after migration. The foscholine 12, DDM and LMNG originate from Anatrace, the SDS and Triton X100 originate from Sigma-Aldrich.

In the next series the target is T2, AcrB (Escherichia coli, UniProt P31224).
T2 construct: made in house; host or cells: E. coli C41(DE3)
The experiment in a line: Extraction of AcrB from membranes (SDS-PAGE of supernatant). Also on record: species or system bacterial; same expression system (E. coli C41DE3). As to conditions: detergent 10 g/l unless indicated otherwise; 2 h at 4° C. As for the experimental part: as §1, §2, §3

The target in series [4] is T1, BmrA. The experiment in a line: Size exclusion chromatography of BmrA after detergent exchange. Conditions: Superdex 200 5/150, 2 CMC of detergent, 0.3 ml/min. As to the method: The membrane fraction was extracted and purified in DDM by Ni-NTA metal affinity and Superdex 200 size exclusion, before being reloaded on Ni-NTA in order to exchange the DDM either with itself or with the compound 3.7c. Each pool was subsequently loaded onto a 3 ml Superdex S200 5/150 size exclusion column and eluted in the presence of 2 CMC of the same detergent, as indicated. The proteins are detected by absorbance at 280 nm.
The capacity of the compounds of the invention to maintain the membrane proteins in a native state was exemplified with the compound 3.7c of the invention, monitored by size exclusion chromatography and compared to the reference detergent DDM.
Procedure: BmrA was extracted in DDM and purified by Ni-NTA affinity chromatography as described in example 13, then loaded onto a Superdex 200 10/300 size exclusion column and eluted with 50 mM Hepes-HCl pH 8.0, 100 mM NaCl, 0.4 mM DDM (2×CMC). The fractions containing BmrA were pooled and separated into several aliquots (˜100 μg) kept at 4° C. One aliquot was subsequently reloaded onto an affinity column containing 1 ml of resin. The DDM was then exchanged against 10 volumes of Hepes-NaCl buffer containing either 2 CMC of DDM (control experiment) or 2 CMC of compound 3.7c (2 mM). BmrA was subsequently eluted in the respective buffers with 100 mM of imidazole added. The fractions containing the proteins were combined and concentrated on 50 kDa amicon (regenerated cellulose) to 50 μl, and were then deposited on a 3 ml Superdex 200 5/150 size exclusion column, equilibrated in 50 mM Hepes-HCl pH 8.0, 100 mM NaCl, and 2 CMC of DDM (0.4 mM) or 3.7c (2 mM). The elution was subsequently carried out at 0.3 ml/min in the respective buffers and the BmrA detected at 280 nm.

T1 sequence (O06967 whole entry): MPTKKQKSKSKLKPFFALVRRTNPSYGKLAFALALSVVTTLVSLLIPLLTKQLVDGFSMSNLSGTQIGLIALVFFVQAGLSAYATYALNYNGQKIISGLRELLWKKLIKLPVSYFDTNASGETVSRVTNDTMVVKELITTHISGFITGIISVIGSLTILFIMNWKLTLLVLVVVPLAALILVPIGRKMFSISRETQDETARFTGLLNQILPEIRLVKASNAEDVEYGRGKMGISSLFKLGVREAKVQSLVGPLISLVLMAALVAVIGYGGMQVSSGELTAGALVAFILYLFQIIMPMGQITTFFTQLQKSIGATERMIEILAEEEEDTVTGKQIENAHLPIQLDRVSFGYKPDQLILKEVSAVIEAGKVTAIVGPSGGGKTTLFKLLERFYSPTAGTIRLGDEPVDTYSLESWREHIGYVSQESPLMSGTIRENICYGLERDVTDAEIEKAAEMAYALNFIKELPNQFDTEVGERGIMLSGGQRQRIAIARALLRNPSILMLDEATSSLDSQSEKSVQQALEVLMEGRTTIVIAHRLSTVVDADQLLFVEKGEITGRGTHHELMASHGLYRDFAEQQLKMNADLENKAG
T2 sequence (P31224 whole entry): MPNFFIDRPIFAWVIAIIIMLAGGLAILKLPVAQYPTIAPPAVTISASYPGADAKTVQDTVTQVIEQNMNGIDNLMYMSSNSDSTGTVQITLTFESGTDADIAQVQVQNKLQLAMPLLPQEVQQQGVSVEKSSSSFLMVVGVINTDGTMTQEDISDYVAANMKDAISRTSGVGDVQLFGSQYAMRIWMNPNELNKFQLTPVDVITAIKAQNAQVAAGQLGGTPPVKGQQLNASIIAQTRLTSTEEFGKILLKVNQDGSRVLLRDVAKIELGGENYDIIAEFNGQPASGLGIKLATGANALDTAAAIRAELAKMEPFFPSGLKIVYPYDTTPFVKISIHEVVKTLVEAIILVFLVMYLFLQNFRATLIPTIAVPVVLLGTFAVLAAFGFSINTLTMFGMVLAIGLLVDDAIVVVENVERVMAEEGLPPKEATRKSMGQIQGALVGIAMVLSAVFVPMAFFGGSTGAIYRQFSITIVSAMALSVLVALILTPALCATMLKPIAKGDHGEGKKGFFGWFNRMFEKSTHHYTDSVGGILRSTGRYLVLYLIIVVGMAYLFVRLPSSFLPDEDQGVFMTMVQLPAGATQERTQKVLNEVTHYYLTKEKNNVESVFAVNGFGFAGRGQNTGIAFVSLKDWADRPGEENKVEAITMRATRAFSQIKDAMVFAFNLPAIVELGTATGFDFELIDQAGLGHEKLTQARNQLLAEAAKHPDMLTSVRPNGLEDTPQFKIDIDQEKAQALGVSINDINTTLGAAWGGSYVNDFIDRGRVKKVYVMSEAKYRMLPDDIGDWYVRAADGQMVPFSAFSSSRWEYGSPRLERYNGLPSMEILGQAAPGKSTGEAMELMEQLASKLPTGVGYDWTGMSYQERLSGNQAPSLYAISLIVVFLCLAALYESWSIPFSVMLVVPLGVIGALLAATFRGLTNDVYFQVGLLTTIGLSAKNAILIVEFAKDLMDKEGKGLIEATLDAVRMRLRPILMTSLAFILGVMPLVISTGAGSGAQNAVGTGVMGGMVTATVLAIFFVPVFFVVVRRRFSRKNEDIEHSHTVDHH

Take `CCCCCCCCCCCCCCCCCCC(=O)N[C@@H](COCc1cn(CCO[C@@H]2OC(CO)[C@@H](O)C(O)C2O)nn1)C(=O)N[C@H](CCC(=O)O)C(=O)O` (stereo partly shown) [Compound 3.7d]: the “CMC” value in series [1] came to 0.02 mM. Further, in series [2], the “Ø, nm” value was 5.5 nm. Besides, the “extraction of BmrA” value on BmrA [3] was “partially extracting”. Besides, the “extraction of AcrB” value on AcrB is reported as “extracting”.

Consider `CCCCCCCCCCCCCCCCCCC(=O)N[C@@H](COCc1cn(CCO[C@@H]2OC(CO)[C@@H](O[C@H]3OC(CO)[C@@H](O)C(O)C3O)C(O)C2O)nn1)C(=O)N[C@H](CCC(=O)O)C(=O)O` (stereo partly shown) [Compound 3.7f], for which the “CMC” value in series [1] turned out to be 0.02 mM. For the same compound, the “CMC (breakage in the slope of DPH fluorescence, FIG. 4)” value in series [1] (triplicates) was 20 µM. Further, the “Ø, nm” value in series [2] is reported as 4.0 nm. On BmrA [3], the “extraction of BmrA” value was “extracting”. For the same compound, the “extraction of AcrB” value on AcrB is on record as “extracting”.

For `CCCCCCCCCCCCCCCCCCC(=O)N[C@@H](COCc1cn(CCOCCOCCOCCOCCOCCOC)nn1)C(=O)N[C@H](CCC(=O)O)C(=O)O` [Compound 3.7h], in series [1], the “CMC” value came out at 0.01 mM. For the same compound, the “Ø, nm” value in series [2] was 3-4 nm. Further, the “extraction of BmrA” value at BmrA [3] was “extracting”. Also, the “extraction of AcrB” value at AcrB is “extracting”.

As for `CCCCCCCCCCCCO[C@@H]1O[C@H](CO)[C@@H](O[C@H]2O[C@H](CO)[C@@H](O)[C@H](O)[C@H]2O)[C@H](O)[C@H]1O` [DDM, n-dodecyl β-d-maltoside, reference compound], on BmrA [3], the “extraction of BmrA” value was “solubilize”. Also, the “extraction of AcrB” value on AcrB is “solubilize”. Further, at BmrA [4], the “elution volume of BmrA” value was ~1.6 mL.
